Assay type in all cases: in vivo, human
Data set [1] deals with women with diminished ovarian reserve. The experiment in a line: AMH as reflection of ovarian reserve after DHEA supplementation (Examples 9 and 12). The method, then:
The study is a cross-sectional analysis of 120 consecutive women with DOR in whom AMH levels were evaluated as a reflection of OR. They presented during 2007/8 to our center for initial infertility consultation. First AMH levels obtained were used for INITIAL analysis. Post DHEA initiation, exposure to the supplement ranged from 34 to 119 days (mean 73±27 days). Women with two or more consecutive AMH levels comprised patients in the longitudinal study evaluation of OR after initiation of DHEA supplementation. […]
FSH and estradiol were evaluated by standard enzyme-linked immunoabsorbent assay (ELISA; AIA-600II, Tohso, Tokyo, Japan). […] Theoretical sensitivity, or minimum detection limit, as calculated by interpolation of the mean plus two standard deviations (SD) of eight replicates of the 0 ng/ml MIS/AMH Standard, is 0.006 ng/ml. […]
Data are shown as means±standard deviation (SD) or as raw numbers and percentages. […] Demographic and biochemical data were analyzed with paired or unpaired Student's t-test. […]
The study is a cross-sectional and longitudinal analysis of 120 consecutive women with diminished ovarian reserve, in whom AMH concentrations were evaluated as a reflection of ovarian reserve. […]
FSH and oestradiol were evaluated by standard enzyme-linked immunoabsorbent assay (ELISA; AIA-600II, Tohso, Tokyo, Japan). […]

The nature of data set [2]: Case report: DHEA substitution in probable 17,20-desmolase deficiency (Patient B, Example 5). Conditions: human, in vivo, oral, normal (130-980), read-out: DHEA level. The method, then:
(§1) In a further study, a case of probable 17, 20-desmolase deficiency, resulting in abnormally low estradiol, DHEA, androstenedione and testosterone levels, is presented in a person with a clinical history of, initially, unexplained infertility and, later, prematurely aging ovaries.
(§2) In July of 2003, the patient was started on 25 mg daily of micronized DHEA. After five weeks of treatment, DHEA, DHEA-S and androstenedione levels had normalized into mid-ranges. (Even though androstenedione is partially produced through the activity of 17,20-desmolase from 17-hydroxyprogesterone, part is also derived from DHEA through the activity of 3-beta hydroxysteroid dehydrogenase [Speroff et al., 1999a]. The normalization of androstenedione, after DHEA administration, therefore, also speaks for an underlying 17,20-desmolase defect, and not a 3-beta hydroxysteroid dehydrogenase deficiency.) In the third and fourth month, following the start of DHEA supplementation, the patient ovulated spontaneously with estradiol levels of 268 and 223 pg/ml (Table 2), respectively, measured on the day of LH surge.
(§3) On Jan. 28, 2004, and after DHEA therapy of approximately six months, a fourth IVF cycle was initiated. Their baseline FSH level in that cycle was 9.6 mIU/ml, estradiol 56 pg/ml. Stimulation took place with 300 IU of recombinant FSH (without hMG) and with an agonist flare protocol. […] A triplet pregnancy was established with heart beats. Two, out of the three fetuses lost heart beat spontaneously, and the patient delivered by cesarean section, at term, a healthy singleton infant.

Data set [3] has as its system person with prematurely aging ovaries. The data set is described as above. Conditions: for Estradiol periovulatory: spontaneous ovulation. The method, then: as §1, §2, §3
Setting [4] is: January 2004, 4th IVF cycle start, DHEA approximately six months.
Setting [5] is: fourth IVF cycle after DHEA therapy of approximately six months.

Where “and” joins values, the source holds several entries; their conditions need not be identical. Equal values may be shown once.

Take `C[C@]12CC[C@H](O)CC1=CC[C@@H]1[C@@H]2CC[C@]2(C)C(=O)CC[C@@H]12` [DHEA, Dehydroepiandrosterone]: the clinical pregnancy rate in data set [1] (55 women who reached IVF, 13 conceived) came to 23.64%. The “AMH at highest measured peak” value in data set [1] (longitudinal evaluation, n=55, baseline before DHEA 0.22±0.22, DHEA 25 mg TID) was found to be 0.35 ± 0.03 ng/mL. Also, the concentration at 5 months in data set [2] (25 mg daily, December 2003, on DHEA) was found to be 278 ng/mL. Moreover, the concentration at 5 weeks in data set [2] (July 2003 after DHEA treatment start, 25 mg daily micronized) was 2.96 ng/mL. The same compound came in with a Testosterone free in data set [3] (December 2003, on DHEA, normal (1-21)) of 2 pg/mL. Also, the “Testosterone free and weekly bound” value in data set [3] (December 2003, on DHEA, normal (3-29)) amounted to 4 ng/dL. In data set [3] (setting [4]), this compound gave an Estradiol baseline of 56 pg/mL and an FSH baseline of 9.6 mIU/ml. Further, in data set [3] (January 2004, on DHEA, first value), the FSH came to 18 mIU/ml. This compound showed an Androstenedione level in data set [3] (July 2003 after DHEA treatment start, normal (65-270)) of 121 ng/dL. In data set [3] (November 2003, on DHEA), this compound had an Estradiol of 38 pg/mL and an FSH of 17 mIU/ml. Also, in data set [3] (October 2003, on DHEA), the Estradiol is 44 pg/mL; the FSH stood at 14.7 mIUI/ml; the Estradiol periovulatory was 223 pg/mL and 224 pg/mL. The compound also returned an Estradiol periovulatory in data set [3] (September 2003, on DHEA) of 268 pg/mL. Besides, in data set [3] (setting [5]), the oocytes retrieved came out at 8 and the peak estradiol level amounted to 1764 pg/mL.

Values taken from patent publication US9375436B2, “Androgen treatment in females” (priority 2004, dated 2016).
